We go through one compound from patent US20240287463A1, “INDUCIBLE TISSUE CONSTRUCTS AND USES THEREOF” (Massachusetts Institute of Technology, priority 2020, published 2024).

Each structure is given as a SMILES string.

One data set relates to iCasp9-HLF. The data set can be described thus: HUVEC/iCasp9-HLF tissue constructs implanted in mouse fat pad. It is filed as in vivo, mice. Particulars: 10 mg/kg intraperitoneally on days 5, 7, 9. As to the method: The ability to successfully transplant the described tissue constructs was assessed in mice. Specifically, engineered tissue constructs consisting of HUVECs and iCasp9-human lung fibroblasts (iCasp9-HLF, see Example 7) were cultured for 7 days in vitro. Constructs were then implanted into the intraperitoneal mesenteric parametrial fat pad of mice. Five days after implantation, mice were injected with 10 mg/kg CID or vehicle intraperitoneally. Mice were dosed again on days 7 and 9. Constructs were collected from mice on day 10 post-implantation. Explants were cryosectioned and imaged to visualize the presence of cells.

Another data set concerns HUVECs. In words: vascular network in HUVEC/iCasp9-HDF microfluidic devices after fibroblast removal (dextran perfusion). The data set is classed as cell-based, human. How it is done:
More specifically, the molds for the 2-channel microfluidic devices were constructed using stereolithography (Proto Labs). Polydimethylsiloxane (PDMS) was cured at a standard mixing ratio overnight at 60° C. in the mold, and individual devices were cut and plasma-bonded to glass slides. To enhance ECM bonding to PDMS, the surface inside the tissue chamber of the devices was functionalized with 0.01% poly-L-lysine and 1% glutaraldehyde following plasma-activation and washed overnight in DI water. On the day of seeding, devices were soaked in 70% ethanol (EtOH) and dried. Acupuncture needles (300 μm diameter) (Hwato) were blocked in 0.1% (w/v) bovine serum albumin (BSA) (Sigma) in phosphate buffer saline (PBS) for 45 minutes and inserted through the two needle guides. Devices with needles were UV-sterilized for 15 minutes. Once the needles were inserted, a fibrinogen solution containing human umbilical vein endothelial cells (HUVECs) and growth-arrested human dermal fibroblasts (HDFs) were added into the tissue chamber with thrombin. To prepare the cells for seeding, HDFs or iCasp-9 HDFs were growth-arrested with 10 μg/mL mitomycin in FGM-2 for 2.5 hours and thoroughly washed 5 times in FBM. Both HUVECs and HDFs were lifted from culture plates using TrypLE Express (Gibco), centrifuged at 200 g for 4 minutes, and resuspended to a concentration of 20 million cells/mL in EGM-2. A solution of HUVECs (3 million cells/mL), HDFs or iCasp-9 HDFs (0, 1 million, 3 million, or 6 million cells/mL), fibrinogen (2.5 mg/mL), thrombin (1 U/mL) in EGM-2 was prepared for the bulk hydrogel region of each device. After the addition of thrombin, the solution was quickly injected into the tissue chamber, and the devices were repeatedly rotated while the solution crosslinked. Appropriate media was added to each well of the device, and the devices were placed in the incubator (37° C., 5% CO2). After 15 minutes, the needles were carefully removed from the devices to create 300 μm hollow channels between the wells. Each channel of the device was seeded with additional HUVECs at 2 million cells/ml for at least 5 minutes on each side (top and bottom) in the incubator. Each device received 200 μl of appropriate media daily and cultured on the rocker inside the incubator. Once the fibrinogen polymerized into fibrin, the needles were removed to create two hollow, microfluidic channels. These channels were then seeded with additional HUVECs to line the walls in a monolayer.
Vessel networks were analyzed by fixing all devices with 4% PFA for 30 minutes on a rocker and washing with PBS overnight at 4° C. The devices were then blocked in 3% BSA overnight at 4° C. Lectin (UEA DyLight 649, Vector Labs) was diluted in the blocking solution at 1:100 dilution and added to the devices for another 4° C. overnight incubation. Devices were then washed overnight with PBS at 4° C. and kept in PBS with 0.02% (w/v) sodium azide at 4° C. until imaging. Before imaging, a solution of 500 kDa fluorescein isothiocyanate (FITC)- or tetramethylrhodamine isothiocyanate (TRITC)-conjugated dextran (0.15 mg/ml) was added to one of the microfluidic channels to generate gravity-driven hydrostatic pressure between the two channels of the device. All device images were then captured by a Leica SP8 confocal microscope (Leica, Wetzlar, Germany) using either a Leica 10×/0.30NA W U—V-I WD-3.60 Water or 25×/0.95NA W VISIR WD-2.50 Water objective and Leica LAS X imaging software. […]

On to `CC[C@H](C(=O)N1CCCC[C@H]1C(=O)O[C@H](CCc1ccc(OC)c(OC)c1)c1cccc(OCC(=O)NCC(CNC(=O)COc2cccc([C@@H](CCc3ccc(OC)c(OC)c3)OC(=O)[C@@H]3CCCCN3C(=O)[C@@H](CC)c3cc(OC)c(OC)c(OC)c3)c2)CN(C)C)c1)c1cc(OC)c(OC)c(OC)c1` [CID, AP20187], for which the “integration of engineered vessels with host vessels (anti-TER119)” value with iCasp9-HLF (collected day 10) is reported as “demonstrated vessel integration”. For the same compound, the “iCasp9-HLF in explants compared to vehicle treated mice” value in the data set on iCasp9-HLF (collected day 10 post-implantation) is “reduction”. Moreover, in the data set on HUVECs (10 nM CID after 7 days of co-culture), the “acute effects on HUVECs / noticeable deterioration of the vascular structure” value was “not observed”. In the data set on HUVECs (50 nM CID at day 0), the “dextran transport of endothelial network at day 7” value is “none of these structures could transport dextran”. Besides, in the data set with HUVECs (50 nM CID at day 1), the “perfusion of endothelial network at day 7” value is “little to no perfusion”. Also, in the data set on HUVECs (50 nM CID at day 3 or day 5), the “endothelial network at day 7” value was “highly interconnected and perfusable endothelial networks”. Also, the “average diameter of the perfused vessels versus control” value in the data set with HUVECs (all conditions except day 0 deletion) is given as “comparable”.
